Literature values as cited in patent publication US11896675B2, “Site-specific antibody conjugation and antibody-drug conjugate as specific embodiment thereof” (AbTis Co., Ltd., priority 2019, dated 2024).
Square brackets hold non-standard residues; d marks the D form. Ends that are not written are not given here. Cit = NC(=O)NCCC[C@H](N)C(=O)O

Key:
IgG [1] = conditions: towards IgG, obtained at different conditions or by different methods; for Kd: read-out: Binding Constant Kd
IgG [2] = conditions: towards IgG

Substance | Kd (IgG [1]) [µM] | Binding Capacity (maximal binding capacity qm) (IgG [2]) [mg/mL] | Binding Constant Ka (IgG [1]) | Binding Capacity (IgG [2]) [µg/g] | Binding Capacity, DBC (dynamic binding capacity) (IgG [2])
APAR [comb. tetrapeptide library peptide] | 0.094 | 9.1 | – | – | –
D2AAG (DDAAG) [Compound D2AAG, comb. library ligand, SpA mimic] | – | 36.2 | Ka = 7.9 × 10^5M^−1 | – | –
DAAG [comb. library ligand, SpA mimic] | – | 49.6 | Ka = 2.6 × 10^5M^−1 | – | –
EPIHRSTLTALL [phage display library peptide, SpA mimic] | – | – | – | 320 | –
FRRHL [comb. library peptide, SpA mimic] | 26 | 33.6 | – | – | –
FYCHTIDE [FYCHTIDE(3)] | 5.7 | 63.7 | – | – | –
FYCHWALE | 6.1 | 87.6 | – | – | –
FYWHCLDE | 1.5 | 104.2 | – | – | –
HWCitGWV (HW[Cit]GWV) [comb. library peptide, SpA mimic] | 108 | 78 | – | – | –
HWRGWV [comb. library peptide, SpA mimic] | 10 | 26.4 | – | – | –
HYFKFD [comb. library peptide, SpA mimic] | 11 | 27.0 | – | – | –
KHRFNKD [phage-display library peptide, SpA mimic] | 0.02 | – | – | – | –
NARKFYKG [spot peptide array peptide] | – | – | Ka = 6.5 × 10^6M^−1 | – | DBC-5.0
NKFRGKYK [spot peptide array peptide] | – | – | Ka = 8.6 × 10^6M^−1 | – | DBC-4.9
RRGW | 0.0005 | – | – | – | –
cyclo[(Link-M-WFRHYK] | 7.6 | 19.7 | – | – | –
